These compounds were tested against bovine thrombin (Bos taurus, UniProt P00735) (assay: biochemical). Details: not given.

| Ki [µM] | Compound |
| --- | --- |
| 0.089 | COC(=O)[C@@H](C)N(C)C(=O)[C@H](Cc1ccc(C(=N)NN)cc1)NS(=O)(=O)c1ccc2ccccc2c1 [Example 29, (R)-2-{[3-(4-amidrazono-phenyl)-(S)-2-(naphthalene-2-sulfonylamino)-propionyl]-methyl-amino}-propionic acid methyl ester] |
| 0.227 | COc1cc(C)c(S(=O)(=O)N[C@@H](Cc2ccc(C(=N)NN)cc2)C(=O)N(C)C2CCCC2)c(C)c1C [Example 9, (S)-N-cyclopentyl-N-methyl-3-(4-amidrazonophenyl)-2-[(4-methoxy-2,3,6-trimethylbenzene)sulfonylamino]propionamide] |
| 0.088 | N=C(NN)c1ccc(C[C@H](NS(=O)(=O)c2ccc3ccccc3c2)C(=O)N2CCN(CCO)CC2)cc1 [Example 57, (S)-naphthalene-2-sulfonic acid [1-(4-amidrazono)benzyl-2-oxo-2-[4-(2-hydroxyethyl)-piperazinyl]-ethyl]amide] |
| 5.38 | N=C(NN)c1ccc(C[C@H](NS(=O)(=O)c2ccc3ccccc3c2)C(=O)N2CCN(c3ccccc3)CC2)cc1 [Example 54, (S)-naphthalene-2-sulfonic acid [1-(4-amidrazono)benzyl-2-oxo-2-(4-phenyl-piperazinyl)-ethyl]amide] |
| 0.0138 | CNC(=N)c1ccc(C[C@H](NS(=O)(=O)c2ccc3ccccc3c2)C(=O)N(C)C2CCCC2)cc1 [Example 7, (S)-N-cyclopentyl-N-methyl-3-[4-(methylamidino)phenyl]-2-(2-naphthylsulfonylamino)propionamide] |
| 0.017 | CN(C(=O)[C@H](Cc1ccc(C(=N)NN)cc1)NS(=O)(=O)c1cccc2ccccc12)C1CCCC1 [Example 22, (S)-3-[4-(amidrazono)-phenyl]-N-cyclopentyl-N-methyl-2-(naphthalene-1-sulfonylamino)-propionamide] |
| 0.016 | CN(C(=O)[C@H](Cc1ccc(C(=N)NN)cc1)NC(=O)Cc1cccc2ccccc12)C1CCCC1 [Example 17, (S)-3-[4-(amidrazono)-phenyl]-N-cyclopentyl-N-methyl-2-(2-naphthalen-1-yl-acetylamino)-propionamide] |
| 0.011 | CS(=O)(=O)N1CCN(C(=O)[C@H](Cc2ccc(C(=N)NN)cc2)NS(=O)(=O)c2ccc3ccccc3c2)CC1 [Example 50, (S)-naphthalene-2-sulfonic acid [1-(4-amidrazono)benzyl-2-(4-methylsulfonyl-piperazinyl)-2-oxoethyl]amide] |
| 0.88 | CN(C(=O)[C@H](Cc1ccc(C(=N)NN)cc1)NS(=O)(=O)c1ccc2ccccc2c1)C1CCCC1C(=O)O (stereo partly drawn) [Example 46, 2-{[3-(4-amidrazono-phenyl)-(S)-2-(naphthalene-2-sulfonylamino)-propionyl]-methylamino}-cyclopentane carboxylic acid] |
| 0.165 | COC(=O)[C@@H](C(C)C)N(C)C(=O)[C@H](Cc1ccc(C(=N)NN)cc1)NS(=O)(=O)c1ccc2ccccc2c1 [Example 31, (R)-2-{[3-(4-amidrazono-phenyl)-(S)-2-(naphthalene-2-sulfonylamino)-propionyl]-methyl-amino}-3-methyl-butyric acid methyl ester] |
| 0.05 | N=C(NN)c1ccc(C[C@H](NS(=O)(=O)c2ccc3ccccc3c2)C(=O)N2CCN(C=O)CC2)cc1 [Example 52, (S)-naphthalene-2-sulfonic acid [1-(4-amidrazono)benzyl-2-(4-formyl-piperazinyl)-2-oxoethyl]amide] |
| 0.00435 | CCN(C(=O)[C@H](Cc1ccc(C(=N)NN)cc1)NS(=O)(=O)c1ccc2ccccc2c1)C1CCCC1 [Example 6, (S)-N-cyclopentyl-N-ethyl-3-(4-amidrazonophenyl)-2-(2-naphthylsulfonylamino)propionamide] |
| 10 | N=C(NN)c1ccc(C[C@H](NS(=O)(=O)c2ccc3ccccc3c2)C(=O)N2CCN(c3cccc(C(F)(F)F)c3)CC2)cc1 [Example 55, (S)-naphthalene-2-sulfonic acid [1-(4-amidrazono)-benzyl-2-oxo-2-[-4-(3-trifluoromethyl-phenyl)-piperazinyl]-ethyl]-amide] |
| 0.216 | CN(C)C(=O)[C@H](Cc1ccc(C(=N)NN)cc1)NS(=O)(=O)c1ccc2ccccc2c1 [Example 13, (S)-N,N-dimethyl-3-(4-amidrazonophenyl)-2-(2-naphthylsulfonylamino)propionamide] |
| 9.13 | CCOc1ccccc1N1CCN(C(=O)[C@H](Cc2ccc(C(=N)NN)cc2)NS(=O)(=O)c2ccc3ccccc3c2)CC1 [Example 58, (S)-naphthalene-2-sulfonic acid [1-(4-amidrazono)benzyl-2-oxo-2-[4-(2-ethoxyphenyl)-piperazinyl]-ethyl]amide] |
| 0.259 | COC(=O)CN(C)C(=O)[C@H](Cc1ccc(C(=N)NN)cc1)NS(=O)(=O)c1ccc2ccccc2c1 [Example 25, {[3-(4-amidrazono-phenyl)-(S)-2-(naphthalene-2-sulfonylamino)-propionyl]-methyl-amino}-acetic acid methyl ester] |
| 0.612 | COC(=O)CCCN(C)C(=O)[C@H](Cc1ccc(C(=N)NN)cc1)NS(=O)(=O)c1ccc2ccccc2c1 [Example 35, 4-{[3-(4-amidrazono-phenyl)-(S)-2-(naphthalene-2-sulfonylamino)-propionyl]-methyl-amino}-butyric acid methyl ester] |
| 0.065 | COC(=O)[C@H](C)N(C)C(=O)[C@H](Cc1ccc(C(=N)NN)cc1)NS(=O)(=O)c1ccc2ccccc2c1 [Example 27, (S)-2-{[3-(4-amidrazono-phenyl)-(S)-2-(naphthalene-2-sulfonylamino)-propionyl]-methyl-amino}propionic acid methyl ester] |
| 0.665 | COC(=O)[C@H](C(C)C)N(C)C(=O)[C@H](Cc1ccc(C(=N)NN)cc1)NS(=O)(=O)c1ccc2ccccc2c1 [Example 47, (S)-2-{[3-(4-amidrazono-phenyl)-(S)-2-(naphthalene-2-sulfonylamino)-propionyl]-methylamino}-3-methyl-butyric acid methyl ester] |
| 0.035 | COC(=O)CCN(C)C(=O)[C@H](Cc1ccc(C(=N)NN)cc1)NS(=O)(=O)c1ccc2ccccc2c1 [Example 33, 3-{[3-(4-amidrazono-phenyl)-(S)-2-(naphthalene-2-sulfonylamino)-propionyl]-methylamino}-propionic acid methyl ester] |
| 0.53 | CCN1CCN(C(=O)[C@H](Cc2ccc(C(=N)NN)cc2)NS(=O)(=O)c2ccc3ccccc3c2)CC1 [Example 53, (S)-naphthalene-2-sulfonic acid [1-(4-amidrazono)benzyl-2-(4-ethyl-piperazinyl)-2-oxoethyl]amide] |
| 0.345 | N=C(NN)c1ccc(C[C@H](NS(=O)(=O)c2ccc3ccccc3c2)C(=O)N(CCOCc2ccccc2)C2CCCC2)cc1 [Example 4, (S)-N-cyclopentyl-N-(2-benzyloxyethyl)-3-(4-amidrazonophenyl)-2-(2-naphthylsulfonylamino)propionamide] |
| 0.013 | COC(=O)[C@H]1CCCCN1C(=O)[C@H](Cc1ccc(C(=N)NN)cc1)NS(=O)(=O)c1ccc2ccccc2c1 [Example 48, 1-[3-(4-amidrazono-phenyl)-(S)-2-(naphthalene-2-sulfonylamino)-propionyl]-piperidine-(R)-2-carboxylic acid methyl ester] |
| 0.406 | N=C(NN)c1ccc(C[C@H](NS(=O)(=O)c2ccc3ccccc3c2)C(=O)N2CCCC[C@@H]2C(=O)O)cc1 [Example 49, 1-[3-(4-amidrazono-phenyl)-(S)-2-(naphthalene-2-sulfonylamino)-propionyl]-piperidine-(R)-2-carboxylic acid] |
| 0.346 | CCOC(=O)C1CCCC1N(C)C(=O)[C@H](Cc1ccc(C(=N)NN)cc1)NS(=O)(=O)c1ccc2ccccc2c1 (stereo partly drawn) [Example 45, 2-{[3-(4-amidrazono-phenyl)-(S)-2-(naphthalene-2-sulfonylamino)-propionyl]-methylamino}-cyclopentane carboxylic acid ethyl ester] |
| 20.1 | CN(C(=O)[C@H](Cc1ccc(C(=N)NN)cc1)NC(=O)COc1ccc2ccccc2c1)C1CCCC1 [Example 24, (S)-3-[4-(amidrazono)-phenyl]-N-cyclopentyl-N-methyl-2-[2-(naphthalene-2-yl-oxy)acetylamino]-propionamide] |
| 0.165 | CCCCN(CC(=O)OC)C(=O)[C@H](Cc1ccc(C(=N)NN)cc1)NS(=O)(=O)c1ccc2ccccc2c1 [Example 39, {[3-(4-amidrazono-phenyl)-(S)-2-(naphthalene-2-sulfonylamino)-propionyl]-butylamino}-acetic acid methyl ester] |
| 3.3 | CCOC(=O)N1CCN(C(=O)[C@H](Cc2ccc(C(=N)NN)cc2)NS(=O)(=O)c2ccc3ccccc3c2)CC1 [Example 51, (S)-naphthalene-2-sulfonic acid [1-(4-amidrazono)benzyl-2-oxo-2-(4-ethoxycarbonyl-piperazinyl)-ethyl]amide] |
| 0.28 | CC(=O)N1CCN(C(=O)[C@H](Cc2ccc(C(=N)NN)cc2)NS(=O)(=O)c2ccc3ccccc3c2)CC1 [Example 56, (S)-naphthalene-2-sulfonic acid [2-(4-acetyl-piperazinyl)-1-(4-amidrazono)benzyl-2-oxoethyl]amide] |

The compounds below were run against T1, trypsin (Bos taurus, UniProt P00760) (assay: biochemical). Details: 20 μM substrate; read-out: Inhibitory activity for trypsin, Ki.
T1 sequence (P00760 24-246): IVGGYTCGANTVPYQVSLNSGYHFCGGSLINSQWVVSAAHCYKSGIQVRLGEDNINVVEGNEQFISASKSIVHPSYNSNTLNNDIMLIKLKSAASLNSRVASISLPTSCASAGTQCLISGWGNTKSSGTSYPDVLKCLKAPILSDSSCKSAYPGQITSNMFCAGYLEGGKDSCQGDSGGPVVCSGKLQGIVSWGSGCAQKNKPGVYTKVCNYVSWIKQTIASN
Type: biochemical
Description: To identify the selectivity for thrombin over trypsin of the compound of the present invention, the inhibitory activity for trypsin of the compound of formula (I) is measured as Ki value according to the same method as the above method for determination of thrombin inhibitory activity, and then the ratio of the activity for trypsin to the activity for thrombin is calculated. In this case, the procedure for determination of inhibitory activity for trypsin is substantially identical to that for thrombin, except that N-benzoyl-Val-Gly-Arg para-nitroanilide hydrochloride is used as the substrate.
As the substrate 20μM solution of N-benzoyl-Val-Gly-Arg-p-nitroanilide hydrochloride was used, and the inhibitor was used in various concnetrations within the range of […]. In addition, trypsin was dissolved in 0.1N HCl, adjusted to the concentration of 45 μg/ml with the said tris buffered solution just before the experiment, and then used in an amount of 40μl. As in the experiment for thrombin, a total volume of the reaction solution was 1.5 ml and the remaining procedure was conducted in the same manner.

| Ki [µM] | Compound |
| --- | --- |
| 363 | CNC(=N)c1ccc(C[C@H](NS(=O)(=O)c2ccc3ccccc3c2)C(=O)N(C)C2CCCC2)cc1 [Example 7, (S)-N-cyclopentyl-N-methyl-3-[4-(methylamidino)phenyl]-2-(2-naphthylsulfonylamino)propionamide] |
| 5.79 | CS(=O)(=O)N1CCN(C(=O)[C@H](Cc2ccc(C(=N)NN)cc2)NS(=O)(=O)c2ccc3ccccc3c2)CC1 [Example 50, (S)-naphthalene-2-sulfonic acid [1-(4-amidrazono)benzyl-2-(4-methylsulfonyl-piperazinyl)-2-oxoethyl]amide] |

Source: patent US5747535A, “Selective thrombin inhibitors” (priority 1995, dated 1998)
